A short description of this data set: gradient 5% acetonitrile 3 min, to 50% in 2 min, to 85% in 15 min, held 3 min, 100 µL/min. As to conditions: column: Zorbax Extend-C18 2.1 x 50 mm; eluents: water / acetonitrile, 0.1% formic acid. In a few lines: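 Mixtures of ~100 pure standards were chromatographed on a Zorbax Extend-C18 column (2.1 × 50 mm, 1.8 μm) at 100 μL/min using water and acetonitrile, each with 0.1% formic acid. Detection used a quadrupole time-of-flight mass spectrometer in positive and negative ionization mode, and data collection spanned 3 months. Retention time was obtained from adduct peaks picked computationally and each checked manually.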
`CCn1c(=O)c(C(=O)NCc2cccc(F)c2)nc2cccnc21` gave an RP-LC retention time of 797 s.
On to `O=C(Cn1c(C(F)(F)F)nc2cc3c(cc21)OCCO3)Nc1ccc2c(c1)OCCCO2`, for which the RP-LC retention time worked out at 836 s.
The same measure for `COc1ccc(Cl)cc1NC(=O)NCCc1cn(CC(C)C)c2ncccc12`: 980 s.
In the case of `Cc1ccc(C2Cn3nnc(-c4nc(-c5ccc(F)c(F)c5)no4)c3CO2)c(C)c1` (stereo not given) it was 1230 s.
The compound `CCOc1cc(=O)n2c(c1C(=O)OCc1cccc(F)c1)CCCCC2` had an RP-LC retention time of 934 s.
For `Cc1cc(C(=O)N2CCCC2c2ccccc2Cl)on1` (stereo not given), the RP-LC retention time came to 889 s.
For `O=C(CSc1ccccn1)Nc1nc(-c2ccccc2)cs1`, the RP-LC retention time is 986 s.
The same measure for `O=C1COc2ccc(S(=O)(=O)N3CCC(C(=O)NCc4ccc(Cl)cc4)CC3)cc2N1`: 832 s.
`COc1cc(NS(=O)(=O)c2ccc3c(c2)-c2oncc2CO3)cc(OC)c1`: the RP-LC retention time worked out at 884 s.
Take `Fc1ccc(-c2noc(Cc3nc(-c4ccc(Cl)cc4)cs3)n2)cc1`: the RP-LC retention time amounted to 1310 s.
`COc1ccc(C2(C(=O)NCc3nn(C)c4c3CN(C)CC4)CC2)cc1` came in with an RP-LC retention time of 865 s.
In turn, `O=C(Nc1ccc(C2(C(=O)NCC3CCCO3)CC2)cc1)c1ccc(Br)cc1` (stereo not given) registered an RP-LC retention time of 828 s.
As to `COc1ccccc1-c1nn2c(-c3ccc4ccccc4n3)nnc2s1`, the RP-LC retention time came to 1040 s.
In the case of `CCOC(=O)c1nc(N2CCN(Cc3ccccc3)CC2)c2ccccc2n1`, the RP-LC retention time came out at 623 s.
`O=C(Nc1nc2ccccc2[nH]1)c1ccc(Br)cc1` showed an RP-LC retention time of 710 s.
In the case of `CCCC(C)c1nnc(NC(=O)C2CCN(C(=O)c3cccc(F)c3)CC2)s1` (stereo not given) it was 831 s; in that of `COc1ccccc1-c1nc(-c2ccccn2)no1`, 813 s; in that of `CCOc1ccc(N2CC(c3nnc(NC(=O)Cc4ccc(Cl)cc4)o3)CC2=O)cc1` (stereo not given), 796 s.
`CC(C)OCCCNC(=O)C1CCN(c2ncnc3c2oc2ccccc23)CC1` showed an RP-LC retention time of 662 s.
As for `Cc1cc(=O)n(CC(=O)Nc2ccc3c(c2)OCO3)c(-c2ccccc2)n1`, the RP-LC retention time is 941 s.
The compound `O=C(CCCCCCSc1ccc2ccccc2c1)NO` yielded an RP-LC retention time of 863 s.
`Cc1ccc(CNC(=O)c2ccc(=O)n(CCN3CCCC3)c2)cc1`: the RP-LC retention time turned out to be 614 s.
The compound `CCc1ccc(-c2noc(Cn3c(=O)n(CC)c(=O)c4ccccc43)n2)cc1` gave an RP-LC retention time of 1160 s.
With `O=C(O)c1nnn(-c2ccc3c(c2)OCO3)c1-c1cccnc1`, the RP-LC retention time amounted to 602 s.
`Cc1cc(C)c(S(=O)(=O)N2CCCCC2)c(C)c1[N+](=O)[O-]` returned an RP-LC retention time of 1040 s.
`Cc1cccc(C2CCCN2C(=O)c2c(Cl)cnn2C)c1` (stereo not given) had an RP-LC retention time of 891 s.
Regarding `O=C(c1ccc2ccccc2n1)N1CC2CN(S(=O)(=O)c3ccccc3)CC(C1)O2`, the RP-LC retention time is 769 s.
`COc1ccc(NC(=O)Nc2cnc3c(c2)CCC3)cc1`: the RP-LC retention time stood at 516 s.
Compound `COc1cc(-c2nc3ccc(C)cn3c2Nc2ccc(C)cc2)ccc1O` gave an RP-LC retention time of 661 s.
The same measure for `COc1ccccc1-c1nc(-c2ccc(S(=O)(=O)N3CCCCC3)cc2)no1`: 1220 s; for `CCCn1cc(CCNC(=O)Nc2ccc(F)c(Cl)c2)c2cccnc21`: 835 s; for `Cc1ccc(CNC(=O)c2nnc(-c3ccc(S(=O)(=O)N4CCOCC4)cc3)o2)o1`: 820 s.
In the case of `CCC(=O)N1CCc2sc(C(=O)N3CCN(c4ccccc4F)CC3)cc2C1`, the RP-LC retention time turned out to be 827 s.
The compound `CCn1ccc2sc(C)c(C(=O)NCc3ccco3)c2c1=O` came in with an RP-LC retention time of 723 s.
Compound `CC1CCCN(c2ccn3c(=O)n(CC(=O)Nc4cc(F)cc(F)c4)nc3n2)C1` (stereo not given) had an RP-LC retention time of 849 s.
The same measure for `Clc1ccc(-c2nc(N3CCC(N4CCCCC4)CC3)c3ccccc3n2)cc1`: 616 s; for `COC(=O)c1c(NC(C)c2cccnc2)c2cccc(Cl)c2[nH]c1=O` (stereo not given): 572 s.
In the case of `Cn1cc(S(=O)(=O)N2CCC(C(=O)NCc3ccc(Cl)cc3)CC2)cc1C(=O)N1CCCC1` it was 772 s; in that of `c1cc(-c2cnn3cc(-c4ccc(OCCN5CCCCC5)cc4)cnc23)ccn1`, 584 s.
`Cc1cccc2c1ncn1c(=O)n(CC(=O)NCc3ccccc3Cl)nc21` yielded an RP-LC retention time of 627 s.
In turn, `CCOC(=O)C1CCN(c2cc3c(cc2NC(=O)NCc2ccc(C)cc2)n(C)c(=O)n3C)CC1` gave an RP-LC retention time of 842 s.
The compound `CCCCNC(=O)C1CCCN(C(=O)Nc2ccc(S(=O)(=O)N(CC)CC)s2)C1` (stereo not given) showed an RP-LC retention time of 849 s.
The same measure for `COc1ccc(-c2ccc(/C=C3/SC(N4CCCCC4)=NC3=O)o2)cc1`: 1020 s; for `O=C(Nc1cccnc1)C1CCCN(S(=O)(=O)c2cc(-c3noc(C4CCC4)n3)cs2)C1` (stereo not given): 893 s.
For the compound `O=C(NC1CCCCCC1)C1CCN(c2ccncc2)CC1`, the RP-LC retention time is 610 s.
`Oc1cccc2ccc(N3CCOCC3)nc12` had an RP-LC retention time of 547 s.
In the case of `CCOc1ccccc1N1C=C(C(=O)OC)S(=O)(=O)c2ccccc21`, the RP-LC retention time came to 849 s.
Regarding `COc1cc(OC)cc(-c2noc(Cn3nc(-c4ccc(C)cc4)ccc3=O)n2)c1`, the RP-LC retention time turned out to be 1090 s.
`CCc1ccc(S(=O)(=O)N2CCC3(CC2)NCCN=C3NCc2ccccc2OC)cc1` registered an RP-LC retention time of 779 s.
`O=c1c2cnn(-c3ccc(F)cc3)c2ncn1Cc1nc(-c2ccc(OC(F)(F)F)cc2)no1` showed an RP-LC retention time of 1160 s.
Turning to `CC(=O)c1ccc(NC(=O)Cc2csc3nc(-c4ccc(C)c(C)c4)cn23)cc1`, the RP-LC retention time was determined as 795 s.
`CCn1c(CCNC(=O)c2ccc(OC)c(F)c2)nc2cccnc21`: the RP-LC retention time is 622 s.
On to `CCOc1ccc(NC(=O)Nc2nccn(-c3ccc(F)cc3)c2=O)cc1`, for which the RP-LC retention time was 939 s.
The same measure for `Cc1noc(C)c1CC(=O)N1CC(F)(F)C[C@H]1COc1ccc2c(c1)CCC2`: 1060 s; for `O=C(CN1C(=O)C2CCCCN2c2ccc(C(=O)N3CCCC3)cc21)NCCC1=CCCCC1` (stereo not given): 914 s.
On to `CN(CC1CCOCC1)C(=O)Nc1ccccc1Cl`, for which the RP-LC retention time came out at 763 s.
As to `CC(=O)Nc1nc(-c2ccc3c(c2)NC(=O)C(C)O3)c(C)s1` (stereo not given), the RP-LC retention time was determined as 701 s.
The compound `O=C(NCCn1ncccc1=O)c1ccc(N2CCCC2)nn1` displayed an RP-LC retention time of 522 s.
The same measure for `CCNS(=O)(=O)c1cccnc1Nc1ccc(C)c(Cl)c1`: 1110 s.
The compound `O=C(CCNS(=O)(=O)c1ccc(Cl)cc1)N1CCN(c2ccccn2)CC1` came in with an RP-LC retention time of 609 s.
Compound `O=C(NC1CC1)c1ccc(OCC2CCCN2C(=O)C2CCC2)cc1` (stereo not given) had an RP-LC retention time of 741 s.
Compound `CN1C2CCC1CC(OC(c1ccccc1)c1ccccc1)C2` (stereo not given) showed an RP-LC retention time of 784 s.
The compound `Cc1ccc(C)c(NC(=O)C2CC(=O)N(c3ccc4c(c3)CCN4C(=O)C3CC3)C2)c1` (stereo not given) showed an RP-LC retention time of 768 s.
The compound `O=C(CCCS(=O)(=O)c1ccc(Cl)cc1)Nc1ccc([N+](=O)[O-])cc1` showed an RP-LC retention time of 695 s.
In turn, `Cc1ccsc1C(=O)Nc1nnc(SCc2nnc(-c3ccc4c(c3)OCO4)o2)s1` returned an RP-LC retention time of 884 s.
For `Cc1[nH]nc(-c2c(C)sc(C)c2S(=O)(=O)N2CCN(c3ccccc3F)CC2)c1C`, the RP-LC retention time was 1010 s.
Consider `CCC(C)NC(=O)CCC(=O)N1CCc2c(c(C(=O)N3CCCC3)nn2C)C1` (stereo not given), for which the RP-LC retention time worked out at 617 s.
The same measure for `O=C(NCc1ccc(Br)cc1)C1CCCN(C(=O)c2cc(-c3ccncc3)n[nH]2)C1` (stereo not given): 623 s.
In the case of `O=C(CCCCn1c(=O)c2ccccc2n(Cc2ccccc2)c1=O)NCc1cccs1`, the RP-LC retention time is 847 s.
`CN(C)c1ccc(N2C=C(C(=O)N3CCCCC3)S(=O)(=O)c3ccc(F)cc32)cc1` had an RP-LC retention time of 959 s.
As to `CC(C)Oc1ccc(-c2noc(Cn3c(=O)n(-c4ccccc4F)c(=O)c4sccc43)n2)cc1`, the RP-LC retention time was determined as 1090 s.
`Cc1noc(C)c1CN1CCC(NC(=O)c2ccc3cc[nH]c3c2)CC1` returned an RP-LC retention time of 596 s.
The compound `Cc1cccc(C2(O)C(=O)N(CC(=O)N(C)c3ccccc3)c3ccccc32)c1` (stereo not given) gave an RP-LC retention time of 614 s.
Compound `CC1CCN(Cc2nc(-c3ccc(N4CCSCC4)nc3)no2)CC1` had an RP-LC retention time of 672 s.
In the case of `O=C(Nc1ccc(F)cc1F)c1c(O)c2cccnc2n(Cc2ccccc2)c1=O`, the RP-LC retention time was 1310 s.
As for `CN1C(=O)C2(CCN(C(=O)c3cccc(F)c3)C2)c2ccccc21` (stereo not given), the RP-LC retention time came out at 765 s.
Turning to `CCCn1ccc2sc(C)c(C(=O)NCc3cccc(OC)c3)c2c1=O`, the RP-LC retention time was found to be 856 s.
In the case of `Cc1nnc(-c2ccc3ccn(CC(=O)N4CCc5ccccc54)c3c2)o1` it was 852 s; in that of `CN(CCC#N)c1ccc(NC(=O)c2ccc(Br)cc2)cc1C(=O)O`, 740 s; in that of `COc1ccccc1-c1noc(C2CCCN2C(=O)Nc2ccc3c(c2)OCO3)n1` (stereo not given), 812 s.

The values are drawn from the METLIN SMRT retention time set (Domingo-Almenara et al. 2019).
